Where two headings read alike, the source gives them in different places.
What was measured:
c-KIT kinase (uKIT) = c-KIT kinase (uKIT) (Homo sapiens (Human), UniProt P10721); experiment: Biochemical Assay for uKIT (coupled pyruvate kinase/lactate dehydrogenase assay); settings: Inhibition of biochemical activity of uKIT kinase; 1 mM ATP
Description: Biochemical Assay for uKIT
Activity of c-KIT kinase (SEQ. ID NO. 1 or SEQ. ID NO. 2) was determined spectroscopically using a coupled pyruvate kinase/lactate dehydrogenase assay that continuously monitors the ATP hydrolysis-dependent oxidation of NADH (e.g., Schindler et al. Science (2000) 289: 1938-1942). Assays were conducted in 384-well plates (100 μL final volume) using 16 nM (Decode, SEQ ID No. 1) or 4.36 nM (Signal Chem, SEQ. ID No. 2), 0.7 mg/mL PE4Y substrate, 1.5 units pyruvate kinase, 2.1 units lactate dehydrogenase, 1 mM phosphoenol pyruvate, 0.28 mM NADH and 1 mM ATP in assay buffer (100 mM Tris, pH 7.5, 15 mM MgCl2, 0.5 mM DTT, 0.1% octyl-glucoside, 0.002% (w/v) BSA, and 0.002% Triton X-100). Inhibition of KIT was measured by adding serial diluted test compound (final assay concentration of 1% DMSO). A decrease in absorption at 340 nm was monitored continuously for 6 h at 30° C. on a multi-mode microplate reader (BioTek). The reaction rate was calculated using the 2-3 h time frame. The reaction rate at each concentration of compound was converted to percent inhibition using controls (i.e., reaction with no test compound and reaction with a known inhibitor) and IC50 values were calculated using software routines in Prism (GraphPad software).

Ba/F3 KIT mutant cells = experiment: Ba/F3 mutant KIT Cell Proliferation Assays (resazurin); format: cell-based; settings: Mus musculus, BaF3
Description: Ba/F3 KIT Mutant Cell Line Transduction and Expansion
Several different KIT cDNA encoding various primary and secondary mutations were cloned into a pLV(Exp]-CMV>(cDNA):IRES:puro vector. These vectors were constructed and packaged by VectorBuilder.
Exponentially grown Ba/F3 cells (1×10^6 cells in 1 ml medium) were infected with 60 μl of viral suspension in a 6-well plate in the presence of mIL-3 (10 ng/ml) and polybrene (7.5 μg/ml) (Vector Builder) and incubated for 16 h. After 16 h, the cells were centrifuged, and viral supernatant was discarded. The cells were then re-suspended in fresh medium and allowed to recover for another day. After 72 h post infection, the cells were seeded with complete medium with mIL-3 and with 1 μg/ml puromycin added to medium for selection. After 48 h, cells without viral infection die, whereas successfully transduced cells were collected and changed to fresh medium with 5 ng/ml of IL-3. After a week or two with gradual withdrawal of mIL3 the cells that can continue to proliferate in the absence of mIL3 were exponentially expanded and were frozen down for banking.
Ba/F3 mutant KIT Cell Proliferation Assays
(§1) A serial dilution of test compound was dispensed into a 384-well black clear bottom plate (Corning, Corning, NY). Six hundred and twenty-five cells were added per well in 50 μL complete growth medium. Plates were incubated for 68 h at 37° C., 5% CO2, 95% humidity. At the end of the incubation period 10 μL of a 440 μM solution of resazurin (Sigma, St. Louis, MO) in PBS was added to each well and incubated for an additional 5 h at 37° C., 5% CO2, 95% humidity. Plates were read on a Synergy2 reader (Biotek, Winooski, VT) using an excitation of 540 nm and an emission of 600 nm. Data was analyzed using Prism software (Graphpad, San Diego, CA) to calculate IC50 values.

GIST 430 cells = experiment: GIST 430 Cell Proliferation Assay (resazurin); format: cell-based; settings: Homo sapiens; GIST430 cell proliferation
Description: GIST 430 Cell Proliferation Assay
as §1, with “a 96-well” for “a 384-well”, “NY). Five thousand” for “NY). Six hundred and twenty-five”, “in 200” for “in 50”, “for 115” for “for 68”, “at 37 degrees Celsius,” for “at 37° C.,”, “period 40” for “period 10”

[1] = Ba/F3 KIT AYdup-V654A mutant cell proliferation, read-out: AYdup-V654A IC50
[2] = Ba/F3 KIT exon11del-V654A mutant cell proliferation, read-out: exon11del-V654A IC50
[3] = Ba/F3 KIT exon11del-Y823D mutant cell proliferation, read-out: exon11del-Y823D IC50
[4] = Ba/F3 KIT AYdup mutant cell proliferation, read-out: AYdup IC50
[5] = Ba/F3 KIT AYdup-D816G mutant cell proliferation, read-out: AYdup-D816G IC50

c-KIT kinase (uKIT), sequence (P10721 other isoform, or with tags, fused parts or gaps): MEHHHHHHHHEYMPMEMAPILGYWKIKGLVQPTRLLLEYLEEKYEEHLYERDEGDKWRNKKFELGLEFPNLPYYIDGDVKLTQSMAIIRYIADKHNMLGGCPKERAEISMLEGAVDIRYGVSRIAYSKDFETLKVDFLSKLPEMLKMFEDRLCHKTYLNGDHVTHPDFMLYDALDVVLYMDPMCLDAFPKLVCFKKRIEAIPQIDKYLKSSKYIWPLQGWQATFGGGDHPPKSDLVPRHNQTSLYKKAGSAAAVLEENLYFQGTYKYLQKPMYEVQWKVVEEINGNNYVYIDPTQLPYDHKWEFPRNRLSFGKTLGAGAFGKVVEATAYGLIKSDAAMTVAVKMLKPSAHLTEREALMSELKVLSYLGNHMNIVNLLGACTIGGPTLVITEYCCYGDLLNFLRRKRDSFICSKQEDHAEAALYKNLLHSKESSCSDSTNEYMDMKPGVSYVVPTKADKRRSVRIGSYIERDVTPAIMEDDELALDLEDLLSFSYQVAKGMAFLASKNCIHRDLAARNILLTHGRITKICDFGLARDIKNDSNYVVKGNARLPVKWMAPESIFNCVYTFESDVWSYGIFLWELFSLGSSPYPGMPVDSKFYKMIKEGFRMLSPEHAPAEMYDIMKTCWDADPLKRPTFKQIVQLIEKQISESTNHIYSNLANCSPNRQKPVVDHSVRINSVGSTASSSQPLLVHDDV

Row | IC50 (c-KIT kinase (uKIT)) [nM] | IC50 (Ba/F3 KIT mutant cells; [1]) [nM] | IC50 (Ba/F3 KIT mutant cells; [2]) [nM] | IC50 (Ba/F3 KIT mutant cells; [3]) [nM] | IC50 (Ba/F3 KIT mutant cells; [4]) [nM] | IC50 (Ba/F3 KIT mutant cells; [5]) [nM] | Compound | IC50 (GIST 430 cells) [nM]
1 | 10 to 100 | 10 to 100 | 10 to 100 | 100 to 1000 |  |  | COCCOc1cc(F)c2c(Nc3ccc(NC(=O)CC(=O)NC4CC(F)(F)C4)cc3)ncnc2c1 [Example 113] | 10 to 100
2 | 10 to 100 | 100 to 1000 | 10 to 100 | 100 to 1000 | ≤ 10 | 10 to 100 | COCCOc1cc(F)c2c(Nc3ccc(NC(=O)OCCC(C)(C)F)cc3)ncnc2c1 [Example 52] | 10 to 100
3 | 10 to 100 | 10 to 100 | ≤ 10 | 100 to 1000 |  |  | COCCOc1cc(F)c2c(Nc3ccc(NC(=O)CNC(=O)CC(C)C)cc3)ncnc2c1 [Example 76] | ≤ 10
4 | > 1000 |  | > 1000 |  |  |  | COCCOc1cc(F)c2c(Nc3ccc(NC(=O)CC(=O)NCCN(C)C)cc3)ncnc2c1 [Example 83] | > 1000
5 | 10 to 100 | 100 to 1000 | 10 to 100 | > 1000 |  |  | COCCOc1cc(F)c2c(Nc3ccc(NC(=O)CCC4CCOCC4)cc3)ncnc2c1 [Example 63] | 10 to 100
6 | 10 to 100 | 10 to 100 | 100 to 1000 | 100 to 1000 |  |  | COCCOc1cc(OC)c2c(Nc3ccc(NC(=O)CC(=O)NC(C)(C)C)cc3)ncnc2c1 [Example 177] | 10 to 100
7 | 100 to 1000 | 100 to 1000 | 10 to 100 | 100 to 1000 |  |  | COCCOc1cc(F)c2c(Nc3ccc(NC(=O)C(C)NC(=O)CC(C)C)cc3)ncnc2c1 (stereo not drawn) [Example 55] | 100 to 1000
8 | > 1000 | 100 to 1000 | 100 to 1000 |  |  |  | COCCOc1cc(F)c2c(Nc3ccc(NC(=O)CCC4CCN(C)CC4)cc3)ncnc2c1 [Example 62] | > 1000
9 | ≤ 10 | ≤ 10 | 10 to 100 | 10 to 100 | ≤ 10 | ≤ 10 | CC(C)(F)CCNC(=O)Nc1ccc(Nc2ncnc3cc(OCCCN4CCCC4)cc(F)c23)cc1 [Example 158] | 10 to 100
10 | ≤ 10 | 10 to 100 | 10 to 100 | 10 to 100 |  |  | CC(C)(F)CCNC(=O)Nc1ccc(Nc2ncnc3cc(OCCCN4CCOCC4)cc(F)c23)cc1 [Example 195] | ≤ 10
11 | 10 to 100 | 10 to 100 | 10 to 100 | > 1000 |  |  | COCCOc1cc(F)c2c(Nc3ccc(NC(=O)CC(=O)NCC(C)(C)COC)cc3)ncnc2c1 [Example 86] | 10 to 100
12 | 10 to 100 | 100 to 1000 | 10 to 100 | > 1000 |  |  | COCCOc1cc(F)c2c(Nc3ccc(NC(=O)CC(=O)NCCC(C)(C)OC)cc3)ncnc2c1 [Example 107] | 100 to 1000
13 | ≤ 10 | 10 to 100 | 10 to 100 | 100 to 1000 | ≤ 10 | 10 to 100 | CC(C)(F)CCNC(=O)Nc1ccc(Nc2ncnc3cc(OCCN4CCCC4)cc(F)c23)cc1 [Example 150] | 10 to 100
14 | 100 to 1000 | 100 to 1000 | 100 to 1000 | > 1000 |  |  | COCCOc1cc(F)c2c(Nc3ccc(NC(=O)CC(=O)NC4CC5(COC5)C4)cc3)ncnc2c1 [Example 114] | 100 to 1000
15 | 10 to 100 | 10 to 100 | 10 to 100 | 10 to 100 |  |  | CN1CC[C@H](Oc2cc(F)c3c(Nc4ccc(NC(=O)NCCC(C)(C)F)cc4)ncnc3c2)C1 [Example 172] | 10 to 100
16 | ≤ 10 | 10 to 100 | ≤ 10 | 10 to 100 | ≤ 10 | 10 to 100 | COCCOc1cc(F)c2c(Nc3ccc(NC(=O)CC(=O)NC4CCCC4)cc3)ncnc2c1 [Example 92] | ≤ 10
17 | 10 to 100 | 10 to 100 | 10 to 100 | 10 to 100 |  |  | COCCOc1cc(OC)c2c(Nc3ccc(NC(=O)NCCC(C)(C)C#N)cc3)ncnc2c1 [Example 182] | 10 to 100
18 | ≤ 10 | 10 to 100 | 10 to 100 | 10 to 100 | ≤ 10 | ≤ 10 | COCCOc1cc(F)c2c(Nc3ccc(NC(=O)NCCC4(OC)CC4)cc3)ncnc2c1 [Example 32] | 10 to 100
19 | 10 to 100 | 100 to 1000 | 100 to 1000 | 100 to 1000 | 10 to 100 | 100 to 1000 | COCCOc1cc(F)c2c(Nc3ccc(NC(=O)C4(C(=O)NCC(C)(C)C)CC4)cc3)ncnc2c1 [Example 44] | 100 to 1000
20 | 100 to 1000 | 100 to 1000 | 10 to 100 | > 1000 |  |  | COCCOc1cc(F)c2c(Nc3ccc(NC(=O)CC(=O)NC[C@H]4CCCO4)cc3)ncnc2c1 [Example 101] | 100 to 1000
21 | ≤ 10 | 10 to 100 | ≤ 10 | 100 to 1000 |  |  | COCCOc1cc(F)c2c(Nc3ccc(NC(=O)CC(=O)NCCC(C)(C)C)cc3)ncnc2c1 [Example 82] | 10 to 100
22 | 10 to 100 | 100 to 1000 | 10 to 100 | > 1000 |  |  | CNC(=O)COc1cc(F)c2c(Nc3ccc(NC(=O)NCCC(C)(C)F)cc3)ncnc2c1 [Example 147] | 100 to 1000
23 | 10 to 100 | ≤ 10 | 100 to 1000 | 100 to 1000 |  |  | CCN(CC)C(=O)CC(=O)Nc1ccc(Nc2ncnc3cc(OCCOC)cc(F)c23)cc1 [Example 184] | 10 to 100
24 | ≤ 10 | ≤ 10 | 10 to 100 | 100 to 1000 | ≤ 10 | ≤ 10 | COCCOc1cc(F)c2c(Nc3ccc(NC(=O)NCCC4CC4)cc3)ncnc2c1 [Example 19] | 10 to 100
25 | 10 to 100 | 10 to 100 | ≤ 10 | ≤ 10 | ≤ 10 | ≤ 10 | COCCOc1cc(F)c2c(Nc3ccc(NC(=O)NCCOC(C)(C)C)cc3)ncnc2c1 [Example 38] | ≤ 10
26 | 10 to 100 | 10 to 100 | 10 to 100 | 100 to 1000 |  |  | COCCOc1cc(F)c2c(Nc3ccc(NC(=O)CC(=O)N(C)C(C)C)cc3)ncnc2c1 [Example 74] | 10 to 100
27 | 10 to 100 | 10 to 100 | 10 to 100 | 10 to 100 |  |  | COCCOc1cc(F)c2c(Nc3ccc(NC(=O)CC(=O)N4CCCCC4(C)C)cc3)ncnc2c1 [Example 142] | 10 to 100
28 | ≤ 10 | 10 to 100 | ≤ 10 | 100 to 1000 |  |  | COCCOc1cc(F)c2c(Nc3ccc(NC(=O)NCCC(C)(C)C#N)c(F)c3)ncnc2c1 [Example 105] | ≤ 10
